Tested on: Bb fragment of complement Factor B
Assay: SAD study: Bb plasma concentrations
Assay type: in vivo, human
Conditions: for mean Bb plasma concentration: eight hours post-dosing
Experimental: […] were dosed and evaluated in 4 dose groups with ten subjects receiving placebo (Table 1). The first dose group had 6 active and 6 placebo subjects; subsequent groups had 6 active and 2 placebo subjects each. Each group was followed for 28 days after dosing. All subjects were monitored for safety through the last scheduled visit at Day 28. Blood and urine samples were collected at predefined time points from Days 1 to 4 to determine plasma and urine concentrations of Compound 1 and from Days 1 to 7 to determine complement related activities. Results of serum AP activity measured by AP Wieslab assay as well as plasma Bb, factor D level and several other PD biomarkers were determined.
A graphical display of mean plasma Bb concentrations through Day 7 (reported in days) and within 24 hours of dosing (by randomized treatment group and overall) can be found in FIG. 9B and FIG. 9A, respectively. All Compound 1 dose groups evaluated had significant reductions in Bb plasma concentrations after single dose administration relative to baseline and the placebo-treated group as illustrated in FIG. 9A and FIG. 9B. Although the number of subjects evaluated in individual dose groups was relatively small (n=6), the magnitude of changes observed appeared to be dose-dependent. At baseline, the 40 mg, 80 mg, and 120 mg dose groups had Bb plasma concentrations within the normal reference range for the assay (i.e., 0.49 to 1.42 μg/mL); 40 mg, 80 mg, and 120 mg dose groups had mean (±SD) baseline values of 0.80 (±0.195) μg/mL, 0.78 (±0.128) μg/mL, and 0.70 (±0.095) μg/mL, respectively. Bb plasma concentrations reached a nadir 6 hours (in the 40 mg dose group) to 8 hours (in the 80 mg and 120 mg dose groups) post-dosing. Six hours post-dosing, mean (±SD) Bb plasma concentration in the 40 mg dose group had decreased to 0.51 (±0.091) μg/mL. Eight hours post-dosing, mean Bb plasma concentration had decreased to 0.48 (±0.056) μg/mL for the 80 mg dose group and 0.40 (±0.029) μg/mL for the 120 mg dose group. For the 80 mg and 120 mg dose groups, mean Bb plasma concentrations increased to above the LLN for the assay by 10 hours post-dosing (for the 80 mg dose group) and 24 hours (Day 2) (for the 120 mg dose group) post-dosing, respectively, with return to baseline values by 48 hours (Day 3) post-dosing. No subjects had treatment-emergent abnormalities in Bb plasma concentrations during the study.

For `CC(=O)c1nn(CC(=O)N2[C@H](C(=O)Nc3nc(Br)ccc3C)C[C@@]3(C)C[C@@H]23)c2ccc(-c3cnc(C)nc3)cc12` [Compound 1, (1R,3S,5R)-2-(2-(3-acetyl-5-(2-methylpyrimidin-5-yl)-1H-indazol-1-yl)acetyl)-N-(6-bromo-3-methylpyridin-2-yl)-5-methyl-2-azabicyclo[3.1.0]hexane-3-carboxamide], the “time of Bb plasma concentration nadir post-dosing” value (40 mg dose group) was 6 h, the “mean (±SD) Bb plasma concentration” value (40 mg single dose, six hours post-dosing) was 0.51 (±0.091) μg/mL and the “time of Bb plasma concentration nadir post-dosing” value (80 mg and 120 mg dose groups) was 8 h. The “time for mean Bb plasma concentration to increase above the LLN” value (80 mg dose group) was ≤ 10 h, the “mean Bb plasma concentration” value (80 mg single dose) was 0.48 (±0.056) μg/mL and the “time for mean Bb plasma concentration to increase above the LLN” value (120 mg dose group) was ≤ 24 h. For the same molecule, the “mean Bb plasma concentration” value (120 mg single dose) was 0.40 (±0.029) μg/mL and the “time of Bb return to baseline values post-dosing” value (SAD dose groups) was ≤ 48 h.
